System: truncated vancomycin aptamer (four base pairs removed from the stem), E-AB sensor (DNA, aptamer) CGAGGGTACCGCAATAGTACTTATTGTTCGCCTATTGTGGGTCGG
Assay: electrochemical aptamer-based sensor, square-wave voltammetry
Details: undiluted flowing whole blood; surface-attached aptamer; apparent

- KD: 45 µM
SMILES: CN[C@H](CC(C)C)C(=O)N[C@H]1C(=O)N[C@@H](CC(N)=O)C(=O)N[C@H]2C(=O)N[C@H]3C(=O)N[C@H](C(=O)N[C@H](C(=O)O)c4cc(O)cc(O)c4-c4cc3ccc4O)[C@H](O)c3ccc(c(Cl)c3)Oc3cc2cc(c3O[C@@H]2O[C@H](CO)[C@@H](O)[C@H](O)[C@H]2O[C@H]2C[C@](C)(N)[C@H](O)[C@H](C)O2)Oc2ccc(cc2Cl)[C@H]1O

Source: publication PMC6886665 (2019)
